Assay results published in article PMC4920673, “Nitroimidazole carboxamides as antiparasitic agents targeting Giardia lamblia, Entamoeba histolytica and Trichomonas vaginalis” (European Journal of Medicinal Chemistry, 2016).
pEC50: −log10 of the molar value. Converted amounts (≈) assume the structure as drawn. Like-named read-outs stand apart in the source and are kept apart here.

How the values were obtained:
G. lamblia WB (MtzS) = assay: ATP-bioluminescence growth/survival EC50 assay, G. lamblia WB; conditions: for pEC50: minimum n = 3; for EC50: read-out: pEC50 ± SE G. lamblia WB, MtzS strain WB (converted); for S.I (CC50/EC50): average cytotoxicity against HEK293 and HepG2 / G. lamblia WB activity
Procedure: (§1) Compounds were screened for antiparasitic activity using an ATP-bioluminescence based assay for cell growth and survival, [24]. […] Viable cell numbers were determined in triplicate using the CellTiter-Glo Luminescent Cell Viability Assay.

G. lamblia 713M3 (MtzR) = assay: ATP-bioluminescence growth/survival EC50 assay, G. lamblia 713M3; assay type: cell-based, Giardia lamblia; conditions: Giardia duodenalis; for pEC50: read-out: EC50 G. lamblia 713M3, MtzR strain 713M3, minimum n = 3; for EC50: read-out: pEC50 ± SE G. lamblia 713M3, MtzR strain 713M3 (converted)
Procedure: as §1

E. histolytica HM1:IMSS = assay: ATP-bioluminescence growth/survival EC50 assay, E. histolytica; assay type: cell-based, Entamoeba histolytica; conditions: Entamoeba histolytica; for pEC50: read-out: EC50 E. histolytica HM1:IMSS; for EC50: read-out: pEC50 ± SE E. histolytica HM1:IMSS (converted)
Procedure: as §1

T. vaginalis F1623 = assay: ATP-bioluminescence growth/survival EC50 assay, T. vaginalis; assay type: cell-based, Trichomonas vaginalis; conditions: Trichomonas vaginalis; for pEC50: read-out: EC50 T. vaginalis F1623, MtzS, minimum n = 3; for EC50: read-out: pEC50 ± SE T. vaginalis F1623, MtzS (converted)
Procedure: as §1

[1] = system: C. difficile 630 (ATCC BAA-1382); assay: Broth microdilution MIC assay, C. difficile 630; assay type: cell-based, Clostridium difficile; conditions: Clostridioides difficile, ATCCBAA1382; strain 630, MtzS; median of n = 4; read-out: MIC C. difficile 630
Procedure: Clostridium difficile strains (630, ATCC BAA-1382 and NAP1/027, ATCC BAA-1803) were maintained as previously described. The minimum inhibition concentration (MIC) was determined according to the CLSI Methods with modifications in broth and inoculum for C. difficile, [25], [26]. Briefly, compounds and control antibiotics were serially diluted two-fold in 96-well plates (Non-binding surface, Corning). […] C. difficile bacteria from BHIS(TA) agar plates were cultured anaerobically in BHIS at 37 °C overnight. […] An antibiotic standard, a positive growth control (no compound) and a sterility control (no bacteria) were included on each 96 well plate. Plates were covered and incubated at 37 °C for 24 h. MICs for each strain were determined as the lowest concentration without visible growth. […] Median MICs are reported with a range given when the median MIC was between two tested concentrations.

[2] = system: C. difficile NAP1/027 (ATCC BAA-1803); assay: Broth microdilution MIC assay, C. difficile NAP1/027; assay type: cell-based, Clostridium difficile; conditions: Clostridioides difficile, ATCCBAA1803; strain NAP1/027
Procedure: Clostridium difficile strains (630, ATCC BAA-1382 and NAP1/027, ATCC BAA-1803) were maintained as previously described. The minimum inhibition concentration (MIC) was determined according to the CLSI Methods with modifications in broth and inoculum for C. difficile, [25], [26]. Briefly, compounds and control antibiotics were serially diluted two-fold in 96-well plates (Non-binding surface, Corning). The plates were placed in a Coy anaerobic chamber (5% H2, 10% CO2, 85% N2) overnight to reduce the medium. C. difficile bacteria from BHIS(TA) agar plates were cultured anaerobically in BHIS at 37 °C overnight. […]. Compound concentration ranged from 64 to 0.03 μg/mL. An antibiotic standard, a positive growth control (no compound) and a sterility control (no bacteria) were included on each 96 well plate. Plates were covered and incubated at 37 °C for 24 h. MICs for each strain were determined as the lowest concentration without visible growth. Variance between replicates was typically within one 2-fold dilution. Median MICs are reported with a range given when the median MIC was between two tested concentrations.

[3] = Resazurin cytotoxicity assay, HEK293; assay type: cell-based, Human; conditions: human, 24 h, highest concentration 100 μM, n = 3, read-out: CC50 HEK 293
Procedure: (§2) Human HEK293 and HepG2 cells were seeded at 3000 and 5000 cells per well in 384-well plates, respectively. Cells were cultured in Dulbecco's modified Eagle's medium with 10% FBS for 24 h at 37 °C, 5% CO2. A dilution series of compounds was added, with the highest concentration of 100 μM. […] After 24 h incubation with the compounds, 5 μM resazurin was added into each well and incubated at 37 °C for 2 h. As a negative control, 1% Triton X-100 was added into the culture media to lyse all of the cells. The fluorescence intensity was read using Polarstar Omega with excitation/emission 560/590 nm. Data were analysed with GraphPad Prism 6 software (La Jolla, California USA) to calculate CC50 values.

[4] = Resazurin cytotoxicity assay, HepG2; assay type: cell-based, Human; conditions: human, 24 h, highest concentration 100 μM, n = 3, read-out: CC50 Hep G2
Procedure: as §2

[5] = Giardia duodenalis, read-out: EC50 G. lamblia WB, MtzS strain WB

Structure (SMILES)	pEC50 (G. lamblia WB (MtzS); [5])	EC50 (G. lamblia WB (MtzS); Giardia duodenalis) [µM]	S.I (CC50/EC50) (G. lamblia WB (MtzS))	pEC50 (G. lamblia 713M3 (MtzR))	EC50 (G. lamblia 713M3 (MtzR)) [µM]	pEC50 (E. histolytica HM1:IMSS)	EC50 (E. histolytica HM1:IMSS) [µM]	pEC50 (T. vaginalis F1623)	EC50 (T. vaginalis F1623) [µM]	MIC [1] [µg/mL]	MIC [2] [µg/mL]	CC50 at 24 h ([3]; HEK293 cells) [µM]	CC50 at 24 h ([4]; HepG2 cells) [µM]	pEC50 (G. lamblia WB (MtzS); read-out: EC50 G. lamblia WB, MtzS strain WB)	CC50 at 24 h [3] [µM]	CC50 at 24 h [4] [µM]
CC(NC(=O)c1ncc([N+](=O)[O-])n1C)c1ccc(F)cc1 (stereo not shown) [Compound 8d, N-(1-(4-fluorophenyl)ethyl)-1-methyl-5-nitro-1H-imidazole-2-carboxamide]	5.54	2.88	>34	5.72	1.86	5.00	10	5.42	3.8	64 (≈ 219 µM)	> 64	> 100	> 100	–	–	–
Cc1ccc(CCNC(=O)c2ncc([N+](=O)[O-])n2C)cc1 [Compound 8e, 1-methyl-N-(4-methylphenethyl)-5-nitro-1H-imidazole-2-carboxamide]	5.46 to 5.55	2.82	>36	< 4.70	> 20	4.89	12.9	–	8.13	> 64	> 64	> 100	> 100	5.55	–	–
Cn1c([N+](=O)[O-])cnc1C(=O)NCc1ccccn1 [Compound 8f, 1-methyl-5-nitro-N-(pyridin-2-ylmethyl)-1H-imidazole-2-carboxamide.xTFA]	5.80	1.58	>63	5.39	4.07	4.85	14.1	5.85	1.45	64	64	> 100	> 100	–	–	–
Cn1c([N+](=O)[O-])cnc1C(=O)N1CCCC1 [Compound 8i, (1-methyl-5-nitro-1H-imidazol-2-yl)(pyrrolidin-1-yl)methanone]	5.54	2.88	>34	5.40	3.98	4.66	21.9	5.77	1.74	64 (≈ 285 µM)	64 (≈ 285 µM)	> 100	> 100	–	–	–
Cn1c([N+](=O)[O-])cnc1C(=O)NC1CC1 [Compound 8j, N-cyclopropyl-1-methyl-5-nitro-1H-imidazole-2-carboxamide]	5.47	3.39	>29	5.07	8.71	4.92	12	5.96	1.1	> 64	> 64	> 100	> 100	–	–	–
NC(=O)c1nc([N+](=O)[O-])cn1Cc1ccc(F)cc1 [Compound 13a, 1-(4-fluorobenzyl)-4-nitro-1H-imidazole-2-carboxamide]	< 4.30	> 50.1	–	–	–	< 4.30	> 50.1	–	–	> 64	–	–	–	–	> 100	> 100
NC(=O)c1nc([N+](=O)[O-])cn1Cc1ccc(OC(F)(F)F)cc1 [Compound 13b, 4-nitro-1-(4-(trifluoromethoxy)benzyl)-1H-imidazole-2-carboxamide]	5.39	4.07	>22	–	–	< 4.60	> 25.1	–	–	> 64	–	–	–	–	> 100	> 100
NC(=O)c1nc([N+](=O)[O-])cn1Cc1cccc(OC(F)(F)F)c1 [Compound 13c, 4-nitro-1-(3-(trifluoromethoxy)benzyl)-1H-imidazole-2-carboxamide]	5.08	8.32	>12	–	–	< 4.30	> 50.1	–	–	> 64	–	–	–	–	> 100	> 100
Cc1ccc(CCn2cc([N+](=O)[O-])nc2C(N)=O)cc1 [Compound 13d, 1-(4-methylphenethyl)-4-nitro-1H-imidazole-2-carboxamide]	< 4.30	> 50.1	–	–	–	< 4.30	> 50.1	–	–	> 64	> 64	> 100	> 100	–	–	–
NC(=O)c1nc([N+](=O)[O-])cn1Cc1ccccn1 [Compound 13e, 4-nitro-1-(pyridin-2-ylmethyl)-1H-imidazole-2-carboxamide]	4.57	26.9	>3.7	–	–	< 4.30	> 50.1	–	–	> 64	> 64	> 100	> 100	–	–	–
CNC(=O)c1nc([N+](=O)[O-])cn1Cc1ccc(OC(F)(F)F)cc1 [Compound 14a, N-methyl-4-nitro-1-(4-(trifluoromethoxy)benzyl)-1H-imidazole-2-carboxamide]	5.47	3.39	>29	–	–	4.52	30.2	–	–	–	> 64	–	–	–	> 100	> 100
CN(C)C(=O)c1nc([N+](=O)[O-])cn1Cc1ccc(OC(F)(F)F)cc1 [Compound 14b, N,N-dimethyl-4-nitro-1-(4-(trifluoromethoxy)benzyl)-1H-imidazole-2-carboxamide]	5.57	2.69	>37	–	–	4.72	19.1	–	–	64 (≈ 179 µM)	64 (≈ 179 µM)	–	–	–	> 100	> 100
NNC(=O)c1nc([N+](=O)[O-])cn1Cc1ccc(OC(F)(F)F)cc1 [Compound 14e, 4-nitro-1-(4-(trifluoromethoxy)benzyl)-1H-imidazole-2-carbohydrazide]	5.12	7.59	>13	–	–	4.35	44.7	–	–	> 64	> 64	–	–	–	> 100	> 100
O=C(NCc1ccc(F)cc1)c1ncc[nH]1 [Compound 17, N-(4-fluorobenzyl)-1H-imidazole-2-carboxamide]	< 4.30	–	–	–	–	< 4.30	–	< 4.70	–	> 64	–	–	–	–	–	–
NC(=O)c1nccn1Cc1ccc(OC(F)(F)F)cc1 [Compound 18, 1-(4-(trifluoromethoxy)benzyl)-1H-imidazole-2-carboxamide]	< 4.30	–	–	–	–	< 4.30	–	–	–	> 64	–	–	–	–	–	–
Nc1c[nH]c(C(=O)NCc2ccc(F)cc2)n1 [Compound 20, 4-amino-N-(4-fluorobenzyl)-1H-imidazole-2-carboxamide]	< 4.30	–	–	–	–	< 4.30	–	< 4.70	–	> 64	–	–	–	–	–	–
